Experimental data as given in ChEMBL document CHEMBL3870354, “Viral Replication Inhibitors May Treat the Dengue Virus Infections” (ACS Med Chem Lett, 2017).

Assays:
dengue virus type 2 = test: Antiviral activity against eGPF-labeled DENV2 16681 infected in African green monkey Vero cells measured after 3 days by fluorescence microscopic analysis; type: functional, cell-based
[1] = Cytotoxicity against African green monkey Vero cells infected with eGPF-labeled DENV2 16681 assessed as reduction in cell viability measured after 3 days by ATPlite assay; type: toxicity, cell-based; details: chlorocebus sabaeus; for CC50: vero, 72 h; for CC50 at 72 h: Vero cells infected with eGFP-labeled DENV2 16681
[2] = Selectivity index, ratio of CC50 for African green monkey Vero cells infected with eGPF-labeled DENV2 16681 to EC50 for DENV2 16681 expressing eGPF infected in African green monkey Vero cells

Structure (SMILES): COc1cc(NC(C(=O)c2c[nH]c3c(C)cc(OC(F)(F)F)cc23)c2ccc(Cl)cc2OC)cc(S(C)(=O)=O)c1 (single isomer, unassigned; enantiomer 2)
- EC50 (dengue virus type 2): 4.1 nM
- CC50 [1]: 9200 nM
- Ratio CC50/EC50 [2]: 22200

Structure (SMILES): COc1cc(NC(C(=O)c2c[nH]c3c(C)c(F)ccc23)c2ccc(Cl)cc2OC)cc(S(C)(=O)=O)c1 (single isomer, unassigned; enantiomer 2)
- EC50 (dengue virus type 2): 26 nM
- CC50 [1]: 7400 nM
- Ratio CC50/EC50 [2]: 285

Structure (SMILES): COc1cc(NC(C(=O)c2c[nH]c3cc(F)ccc23)c2ccc(Cl)cc2OC)cc(S(C)(=O)=O)c1 (single isomer, unassigned; enantiomer 2)
- EC50 (dengue virus type 2): 12 nM
- CC50 [1]: 6500 nM
- Ratio CC50/EC50 [2]: 530

Structure (SMILES): COc1cc(NC(C(=O)c2c[nH]c3cc(F)ccc23)c2ccc(Cl)cc2OC)cc(S(C)(=O)=O)c1 (racemic)
- EC50 (dengue virus type 2): 0.52 nM
- CC50 at 72 h [1]: 5500 nM
- Ratio CC50/EC50 [2]: 11500

Structure (SMILES): COc1cc(NC(C(=O)c2c[nH]c3cc(F)c(C)cc23)c2ccc(Cl)cc2OC)cc(S(C)(=O)=O)c1 (single isomer, unassigned; enantiomer 2)
- EC50 (dengue virus type 2): 0.2 nM
- CC50 [1]: 3200 nM
- Ratio CC50/EC50 [2]: 18500

Structure (SMILES): COc1cc(NC(C(=O)c2c[nH]c3c(C)c(F)ccc23)c2ccc(Cl)cc2OC)cc(S(C)(=O)=O)c1 (single isomer, unassigned; enantiomer 1)
- EC50 (dengue virus type 2): 0.26 nM
- CC50 at 72 h [1]: 4800 nM
- Ratio CC50/EC50 [2]: 22000

Structure (SMILES): COc1cc(NC(C(=O)c2c[nH]c3c(C)cc(OC(F)(F)F)cc23)c2ccc(Cl)cc2OC)cc(S(C)(=O)=O)c1 (stereo in doubt; 11A)
- EC50 (dengue virus type 2): 0.085 nM
- CC50 [1]: 2600 nM
- Ratio CC50/EC50 [2]: 30100

Structure (SMILES): COc1cc(NC(C(=O)c2c[nH]c3cc(OC)c(C)cc23)c2ccc(Cl)cc2OC)cc(S(C)(=O)=O)c1 (single isomer, unassigned; enantiomer 2)
- EC50 (dengue virus type 2): 36 nM
- CC50 [1]: 12000 nM
- Ratio CC50/EC50 [2]: 341

Structure (SMILES): COc1cc(NC(C(=O)c2c[nH]c3cc(F)ccc23)c2ccc(Cl)cc2OC)cc(S(C)(=O)=O)c1 (single isomer, unassigned; enantiomer 1)
- EC50 (dengue virus type 2): 0.26 nM
- CC50 [1]: 4300 nM
- Ratio CC50/EC50 [2]: 19700

Structure (SMILES): COc1cc(NC(C(=O)c2c[nH]c3cc(F)c(C)cc23)c2ccc(Cl)cc2OC)cc(S(C)(=O)=O)c1 (single isomer, unassigned; enantiomer 1)
- EC50 (dengue virus type 2): 13 nM
- CC50 [1]: 6800 nM
- Ratio CC50/EC50 [2]: 538

Structure (SMILES): COc1cc(NC(C(=O)c2c[nH]c3cc(OC)c(C)cc23)c2ccc(Cl)cc2OC)cc(S(C)(=O)=O)c1 (single isomer, unassigned)
- EC50 (dengue virus type 2): 0.27 nM
- CC50 [1]: 4200 nM
- Ratio CC50/EC50 [2]: 16900

Structure (SMILES): COc1cc(NC(C(=O)c2c[nH]c3ccc(OC(F)(F)F)cc23)c2ccc(Cl)cc2OC)cc(S(C)(=O)=O)c1 (single isomer, unassigned; enantiomer 2)
- EC50 (dengue virus type 2): 3.8 nM
- CC50 [1]: 6200 nM
- Ratio CC50/EC50 [2]: 1480

Structure (SMILES): COc1cc(NC(C(=O)c2c[nH]c3ccc(OC(F)(F)F)cc23)c2ccc(Cl)cc2OC)cc(S(C)(=O)=O)c1 (single isomer, unassigned; enantiomer 1)
- EC50 (dengue virus type 2): 0.067 nM
- CC50 [1]: 2900 nM
- Ratio CC50/EC50 [2]: >37500
